Target: T1, RSV pre-fusion F protein of SEQ ID NO: 10 (Human respiratory syncytial virus A, UniProt P03420, D486N/DEL108-136/I379V/M447V/N67I/P102A/S215P)
T1 construct: made in house
Test: Thermo-stability (Tm50) of RSV pre-fusion F by Differential Scanning Fluorimetry (DSF)
Format: physicochemical
Experimental: Thermo-stability of the RSV pre-fusion F protein of SEQ ID NO: 10 was determined by Differential Scanning Fluorimetry (DSF) by monitoring the fluorescent emission of Sypro Orange Dye (ThermoFisher Scientific) in a 96 well optical qPCR plate. Inhibitors were diluted in DMSO prior to the experiment. Same amount of DMSO was added to pre-fusion F protein without inhibitor. To each well, 5 μl of 20× Sypro orange solution was added. Upon gradual increase of the temperature, from 25° C. to 95° C. (0.015° C./s), the polypeptides unfold and the fluorescent dye binds to the exposed hydrophobic residues leading to a characteristic change in emission. The melting curves were measured using a ViiA7 real time PCR machine (Applied Biosystems). The 1st derivative of the fluorescent signal (a.u.) versus the temperature (° C.) of three individual samples (technical triplicate), as well as the averaged melting curve, were plotted with Graphpad Prism software (Dan Diego, CA, US). From the averaged melting curve, the Tm50 was deducted (lowest point on the curve). The Tm50 values represent the temperature at which 50% of the protein is unfolded and thus are a measure for the temperature stability of the polypeptides. The increase of the Tm50 is reported as difference of the Tm50 of pre-fusion F protein with stabilizing antiviral compound compared with the Tm50 of pre-fusion F protein with only addition of DMSO (i.e. without antiviral compound).
(§1) Vials were frozen to −70° C. in 24 hours under controlled conditions. Samples were subsequently thawed to RT and analyzed by analytical Size Exclusion Chromatography (SEC) to measure loss of RSV F trimer compared the sample that was kept at 4° C. In addition, the dialyzed materials with and without stabilizing compound III were evaluated in DSF to measure the melting temperature. For experimental details see example 2.
as §1, with “Each formulation (pre and post UF/DF samples) was diluted to 0.3 mg/ml. 0.75 ml of each formulation was filled in glass injection vials with rubber stopper and sealed with aluminum caps. Vials” for “Vials”, “different formulations” for “dialyzed materials”
Each formulation (pre and post dialysis samples) was diluted to 0.3 mg/ml. 0.75 ml of each formulation was filled in glass injection vials with rubber stopper and sealed with aluminum caps. Vials were slowly frozen to −70° C. in 24 hours. Samples were subsequently thawed to RT and analyzed by analytical Size Exclusion Chromatography (SEC) to measure loss of RSV F trimer compared the sample that was kept at 4° C. In addition, the different formulations with and without compound III were evaluated in DSF to measure the melting temperature. For experimental details see example 2.

CS(=O)(=O)CCCn1c(Cn2c(=O)n(C3CC3)c3ccncc32)nc2cc(Br)ccc21 [Compound III, 3-[[5-bromo-1-(3-methylsulfonylpropyl)benzimidazol-2-yl]methyl]-1-cyclopropyl-imidazo[4,5-c]pyridin-2-one]
Tm50 (DSF) after buffer exchange (1:50, Formulation 1 and 2 without PS20, AP1): increased the Tm50 irrespective of the buffer
Tm50 (DSF) after UF/DF (compound in the protein and in the diavolume): yielded the highest Tm50
Tm50 (DSF), 1:30 ratio vs 1:3 ratio (dialysis experiment): yielded a higher Tm50 than a 1:3 ratio
Tm50 (DSF) vs samples without compound (pre- and post-dialysis samples): higher
Tm50 (DSF) over time after dialysis (stored at 4° C., Day 0, 21, 84): remained relatively constant

Source: patent US20230310573A1, “Stabilized Vaccine Compositions” (priority 2020, published 2023)
